The results in this text go back to patent US9180107B2 (NANOPHARMACEUTICALS LLC, priority 2009, dated 2015).

Where two headings read alike, the source gives them in different places. Marks after values point to notes of the source that are not given here.

Data set [1] in a line: Turnover rate (stability) of tetrac in the culture system. Format: physicochemical. The procedure: In LC/MS/MS experiments, medium samples (20 μL) were injected onto an HP 1100 series HPLC system (Agilent Technologies, Palo Alto, Calif., USA), equipped with a narrow-bore column Zorbax Eclipse XDB-C18 (5 μm, 150×2.1 mm; Agilent). Separation was performed using a mobile phase of 0.1% (v/v) acetic acid (A) and 100% acetonitrile (B), with a linear gradient of 20-60% B over 25 min. Flow rate was maintained at 0.2 mL min^−1 and elution was monitored by a diode array detector (200-600 nm). The LC effluent was then introduced into a turbo ion-spray source on a Q/STAR-XL quadruple/time-of-flight (TOF) hybrid mass spectrometer (Applied Biosystems, Foster City, Calif., USA). Negative ESI mass spectra were acquired over the range from m/z 100 to 400. The electrospray voltage was set at −4.5 kV and the source temperature was maintained at 475° C. […]
Human glioblastoma U87MG cells were treated with different concentrations of tetrac (10^−9-10^−5M) for 7 d and tetrac was replenished daily. The turnover rate of tetrac in the culture system was measured. Tetrac detected was 75% of the original concentration after 24 h incubation in medium with 10% FBS in the absence of cells at both room temperature and 37° C. […]

Data set [2] relates to human breast cancer MDA-MB-231 cells (MDA-MB). Put plainly: Anti-proliferation (total cell counts) in bellows cell culture system with pharmacodynamic modeling. Format: cell-based. Particulars: for IC50 / Imaxk (maximum effect on rate of growth) / ImaxR (maximum effect on success of replication): MDA-MB 231. The procedure: Each cell culture system is a compressible (bellows) 500 mL bottle which contains cell culture medium and specially-treated polymer flakes to which cells spontaneously attach and grow. Through moving bellows and porous membranes, the level of the medium in the bottle changes periodically. Consequently, the cells are alternately submerged in the culture medium, then exposed to 5% CO2/95% air which creates a dynamic interface between air and medium on the cell surface that maximizes nutrient uptake and oxygen transfer. The system provides a low shear, high aeration and foam-free culture environment. Proprietary treatment of the surfaces of the flakes enables seating and harvesting of cells and secreted proteins are readily isolated from the perfusate.
In a non-perfusion bellows cell culture system that was also used, the medium in each bottle was replaced by fresh medium every 24 h. In the perfusion bellows cell culture system, medium was progressively refreshed over 24 h, i.e., one complete change of medium occurred over 24 h.
In establishing the system, 5×10^7 cells were seeded in perfusion and non-perfusion bellows bottles and incubated overnight at 37° C. After that, flakes were harvested, trypsinized and cells were collected. Cell numbers were counted. […] For experiments, the perfusion bellows cell culture system was run for 2 d prior to starting experiments. […] Cell cultures were then exposed to 1% FBS-containing medium. Tetrac or nano-tetrac was added to the medium in the reservoir bottle to achieve the final concentrations reported for each experiment.
The time course of cell counts of the various cancer lines treated with different concentrations of tetrac or nano-tetrac was modeled by utilizing the pooled approach in NONMEM VI (version 6.2). All time points and treatment arms within each experiment were modeled simultaneously. A mechanism-based model (see Bulitta et al., 2009. Antimicrob. Agents Chemother. 53:46-56) was adapted to describe the proliferation of cancer cells and the inhibition of proliferation by tetrac. This model assumes two populations of cells in different phases of the cell cycle: cells that are preparing for replication (phase 1) and cells that are immediately “pre-replication” (phase 2). Cells transition from phase 1 to phase 2 by a first-order growth rate constant, while replication from phase 2 to phase 1 is assumed to be fast (see FIG. 2).
[formula] [formula] [formula] where C1 is the number of cells in phase 1, C2 the number of cells in phase 2, k21 the first order rate constant for replication (transition from phase 2 to phase 1), and k12 the first-order growth rate constant for transition from phase 1 to phase 2. The total number of cells Ct is the sum of C1 and C2. Rep is the replication efficiency factor which is described by:
[formula] where Cmax is the maximum number of cells. Without tetrac, the replication efficiency factor approaches 2, which reflects a 100% probability of successful replication. InhR describes the inhibitory effect of tetrac on the probability of successful replication:
[formula] Where ImaxR is the maximum effect of tetrac on probability of successful replication and IC50R is the tetrac concentration needed to achieve a half-maximal effect. Inhk describes the inhibitory effect of tetrac on the rate of growth:
[formula] Where Imaxk is the maximum effect of tetrac on rate of growth and IC50k is the tetrac concentration needed to achieve a half-maximal effect. Results

Data set [3] concerns Human adenoid cystic carcinoma TGS112T cells. Put plainly: PCNA western blot (thyroid hormone-induced proliferation). The data set is classed as cell-based. An excerpt: The techniques have been described in a number of publications. (See Davis et al., 2006. Cancer Res. 66:7270-7275; Lin et al., 2007. Steroids. 72:180-187; Lin et al., 2008. Carcinogenesis. 29:62-69; and Davis et al., 2004. Circ Res. 94:1500-1506, each of which is herein incorporated by reference in its entirety). Nucleoproteins were separated on discontinuous SDS-PAGE (9% gels) and the proteins transferred by electroblotting to nitrocellulose membranes (Millipore, Bedford, Mass.). After blocking with 5% milk in Tris-buffered saline containing 0.1% Tween, the membranes were incubated with selected primary antibodies overnight. The secondary antibodies were either goat anti-rabbit IgG (1:1000, Dako, Carpenteria, Calif.) or rabbit anti-mouse IgG (1:1000, Dako), depending upon the origin of the primary antibody. Immunoreactive proteins were then detected by chemiluminescence.
Human adenoid cystic carcinoma TGS112T cells were cultured in medium that contained 0.25% hormone-stripped serum for 2 d and then treated with 10^−7 M tetrac or nano-tetrac for 30 min prior institution of 10^−7 M T4 treatment for 24 h. Nuclear proteins were separated by SDS-PAGE followed by western blot analysis with proliferating-cell nuclear antigen (PCNA) antibody. Thyroid hormone-induced PCNA accumulation was inhibited by tetrac. (See FIG. 6A). […] (See FIG. 6A). Inhibition of thyroid hormone-induced proliferation was confirmed by inhibition by tetrac and nano-tetrac of thyroid hormone-induced accumulation and [^3H]-thymidine incorporation. (See FIG. 6B). […] (See FIG. 6B). […] The effect of nano-tetrac and tetrac on cell proliferation was examined by counting TGS112T cells which were treated daily with 10^−6 M tetrac or 10^−6 M nano-tetrac. […] (See FIG. 6C).

Setting [4] is: study 2, rich data from one single study over 19 days.

As for `O=C(O)Cc1cc(I)c(Oc2cc(I)c(O)c(I)c2)c(I)c1` [tetrac, Tetraiodothyroacetic acid], in data set [1] (24 h incubation in medium with 10% FBS, absence of cells, room temperature and 37° C.), the “Tetrac detected, % of the original concentration” value turned out to be 75%. Further, the tetrac decay in data set [1] (incubated with cell cultures at 37° C.) turned out to be 12%. For the same compound, the IC50 in data set [2] (Homo sapiens, 456 h, study 2, rich data from one single study over 19 days, read-out: IC50R (effect on success of replication)) amounted to 87 nM; in data set [2] (Homo sapiens, 456 h, study 2, rich data from one single study over 19 days, read-out: IC50k (effect on rate of growth)), 5100 nM; in data set [2] (Homo sapiens, study 1, sparse sampling, data pooled from two studies, read-out: IC50R (effect on success of replication)) it was 4400 nM; in data set [2] (Homo sapiens, study 1, sparse sampling, data pooled from two studies, read-out: IC50k (effect on rate of growth)), 7.6 nM. For the same compound, the inhibition at 0.1 µM in data set [2] (Homo sapiens, MDA-MB-231, 192 h, read-out: inhibitory effect on cell growth) was determined as 38%. Besides, the “Imaxk (maximum effect on rate of growth)” value in data set [2] (study 1, sparse sampling, data pooled from two studies) came out at 0.19; in data set [2] (setting [4]), 0.85. In addition, the “ImaxR (maximum effect on success of replication)” value in data set [2] (study 1, Imax at time = 0, decreases with time) is reported as 0.53^a; in data set [2] (setting [4]) it was 0.20. Besides, the “Thyroid hormone-induced PCNA accumulation” value in data set [3] (10^−7 M tetrac, 10^−7 M T4, 24 h) was “inhibited”. Also, the “Proliferation of TGS112T cells (agent alone)” value in data set [3] (10^−7 M, 24 h) is “little effect alone”.
